Laboratory results from patent US7754243B2, “Aqueous suspension of nanoscale drug particles from supercritical fluid processing” (Clemson University Research Foundation, priority 2004, dated 2010).

Key:
[1] = Statistical analysis of SEM images of nanoparticles in the product aqueous suspension; format: physicochemical; conditions: for average nanoparticle size: Ibuprofen
Experimental: A system similar to that illustrated in FIG. 1 was utilized to form aqueous suspensions of Ibuprofen particles. Specifically, a solution (0.25 mg/mL) of Ibuprofen (available from Sigma-Aldrich Corporation) in liquid carbon dioxide (high-purity, SFC grade obtained from Air Products Corporation) was prepared in the syringe pump 10. The solution was pushed through the heating unit 14 to reach the desired supercritical temperature of 40° C. before reaching the expansion nozzle 16. The rapid expansion was carried out at a pre-expansion pressure of 200 bar through a 50 μm orifice into an aqueous solution. A specimen of the product suspension was prepared for SEM imaging by depositing a few drops of the dilute nanoparticle aqueous suspension onto a carbon tape, followed by drying under ambient condition and then coating with platinum before imaging. SEM images were obtained on a Hitachi S-4700 Field-Emission SEM system.

[2] = Stability of the product aqueous suspension against precipitation; format: physicochemical; conditions: for time until precipitation appeared in the suspension: receiving solution neat water
Experimental: A system similar to that illustrated in FIG. 1 was utilized to form aqueous suspensions of Ibuprofen particles. Specifically, a solution (0.25 mg/mL) of Ibuprofen (available from Sigma-Aldrich Corporation) in liquid carbon dioxide (high-purity, SFC grade obtained from Air Products Corporation) was prepared in the syringe pump 10. The solution was pushed through the heating unit 14 to reach the desired supercritical temperature of 40° C. before reaching the expansion nozzle 16. The rapid expansion was carried out at a pre-expansion pressure of 200 bar through a 50 μm orifice into an aqueous solution. FIG. 2A is an SEM analysis of the precipitate obtained when the receiving solution in the expansion chamber 18 was neat water.

change in nanoparticle size on increase of drug loading and PVP concentration ([1]; Ibuprofen loading 0.25 to 0.83 mg/mL, PVP concentration 0.5 to 3.3 mg/mL) | average size in diameter ([1]; Ibuprofen nanoparticles, receiving solution aqueous PVP (Mw≈40,000), pre-expansion 40° C., 200 bar) | average size in diameter ([1]; Ibuprofen nanoparticles, receiving solution aqueous SDS, 3.3 mg/mL) | average nanoparticle size ([1]; PVP receiving solution, pre-expansion temperature 120° C.) | average nanoparticle size ([1]; high-molecular weight PVP (Mw≈360,000)) | change in average particle size on variation of drug/polymer weight ratio ([1]; PVP, drug/polymer weight ratio varied from 0.3 to 4 (Ibuprofen) or 0.3 to 2 (Naproxen)) | stability of product suspension ([2]; receiving solution aqueous SDS, 3.3 mg/mL) | time until precipitation appeared in the suspension [2] | average size in diameter ([1]; Naproxen nanoparticles, 2 wt % methanol co-solvent, receiving solution 0.5 mg/mL PVP (Mw≈40,000)) | Structure (SMILES) | stability of product suspension ([2]; receiving solution aqueous PVP (Mw≈40,000))
no significant changes | 40 nm | 25 nm | 52 nm | 30 nm | no significant changes | remained stable without precipitation | ≤ 15 min | – | CC(C)Cc1ccc(C(C)C(=O)O)cc1 (centres unmarked) [Ibuprofen] | no sign of instability after several days
– | – | – | – | – | – | – | ≤ 15 min | 64 nm | COc1ccc2cc([C@H](C)C(=O)O)ccc2c1 [Naproxen] | –
